Values quoted from earlier work, collected in patent publication US20190054079A1, “ENHANCEMENT OF IMPAIRED MOTOR AND MENTAL FUNCTIONS, USING DEXTROMETHORPHAN AND OXIDASE ENZYME INHIBITOR” (Avanir Pharmaceuticals, Inc., priority 2004, published 2019).

Columns and labels:
[1] = system: patients suffering from neurological disorders (such as ALS); settings: DM alone, late 1980's and early 1990's
[2] = system: NMDA receptors
[3] = system: sigma receptors
[4] = target: P450-2D6 enzyme (Homo sapiens, UniProt P10635); settings: among known drugs in Inaba et al 1985 and 1986
Chain of P450-2D6 enzyme (P10635 whole entry): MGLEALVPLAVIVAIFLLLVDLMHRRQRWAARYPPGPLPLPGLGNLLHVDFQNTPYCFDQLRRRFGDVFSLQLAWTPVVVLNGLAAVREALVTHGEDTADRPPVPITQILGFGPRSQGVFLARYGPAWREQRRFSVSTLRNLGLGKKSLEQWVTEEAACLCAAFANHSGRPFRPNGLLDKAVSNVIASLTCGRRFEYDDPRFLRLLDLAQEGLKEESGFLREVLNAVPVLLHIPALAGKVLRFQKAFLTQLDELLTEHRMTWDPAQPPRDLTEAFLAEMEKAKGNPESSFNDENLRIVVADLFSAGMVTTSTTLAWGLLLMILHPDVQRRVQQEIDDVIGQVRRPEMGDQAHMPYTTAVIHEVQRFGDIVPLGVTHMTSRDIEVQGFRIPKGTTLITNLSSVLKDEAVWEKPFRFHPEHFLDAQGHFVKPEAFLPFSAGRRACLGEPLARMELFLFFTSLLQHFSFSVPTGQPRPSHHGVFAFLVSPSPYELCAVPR

COc1ccc2c(c1)[C@@]13CCCC[C@H]1[C@@H](C2)N(C)CC3 [Dextromethorphan, (+)-3-methoxy-N-methylmorphinan]
benefit in slowing progression of neurological diseases [1]: did not show enough benefits
activity at NMDA receptors [2]: mildly suppresses activity
activity at sigma receptors [3]: stimulates activity

C=C[C@H]1C[N@@]2CC[C@H]1C[C@@H]2[C@@H](O)c1ccnc2ccc(OC)cc12 [quinidine]
potency of P450-2D6 inhibition [4]: most potent P450-2D6 inhibitor
